Patent US8729125B2, “Ophthalmic compositions and methods for treating eyes” (Allergan, Inc., priority 2004, dated 2014)
Counter-ions that a name gives are not always drawn. Like-named read-outs stand apart in the source and are kept apart here.

Key:
corneal epithelial cells = test: Trans-epithelial electrical resistance (TEER) of layered air-lift corneal epithelial cultures exposed to hypertonic fluid; format: cell-based, rabbit; details: for Osmoprotective benefit on TEER relative to hypertonic control, in words: 2 mM, 400 mOsmols/kg, 22 hours; for Concentration dependent effect on % TEER relative to the isotonic control: different concentrations, TEER measured 0 to 24 hours, FIG. 6
Text: In this experiment, corneal epithelial cells were isolated from the rabbit eye and grown under conditions so that they differentiate into a layered “air-lift” culture that includes basal, wing, and squamous cells. As they grow and differentiate, these cultures developed tight junctions between cells that provide the basis for a trans-epithelial electrical resistance (TEER) across the cell layers between the apical and basal surfaces. The TEER value is a sensitive measure of cell growth, differentiation and health.
After 5 days in culture during which the layered structure forms, different culture wells were exposed to hypertonic fluid (400 mOsmols/kg) with or without addition of one of 6 candidate compatible solutes at a low concentration (2 mM). The TEER was then measured after 22 hours of exposure. The TEER value was expressed as a percentage of the TEER value obtained from a similar culture under isotonic (300 mOsmol/kg) conditions.
Example 1 is repeated except that different concentrations of each of the candidate materials are used, and the TEER is measured at various times from 0 to 24 hours.
As in Example 1, the TEER variable is represented as % TEER relative to the isotonic control.
Example 4 was repeated except that compositions including combinations of compatible solutes were used. Compositions including only glycerol as a compatible solute were also tested.

JNK = test: Beadlyte Cell Signaling Assay, phosphorylated:total JNK; format: cell-based, human; details: 2 mM, Beadlyte method, FIG. 3
Protocol: (§1) A series of primary sub-confluent corneal epithelial cultures (grown for 12 to 14 days, about 4−5×10^5 cells/well) were washed three times with […] buffered saline (PBS) and switched to an Earle's Balanced Salt Solution (EBSS, 300 mOsmols/kg) for 24 hours before treatment. The corneal epithelial cells were cultured for 1 hour in an equal volume (2.0 mL/well) of EBSS media or 400 mOsmols/kg media by adding 53 mM NaCl or sucrose, with either L-carnitine inner salt, betaine hydrochloride, erythritol, or xylitol (all at a concentration of 2 mM) that were pre-added 60 minutes before adding NaCl or sucrose. Samples without these osmoprotectants were also prepared and tested.
(§2) The adherent cells were lysed in Beadlyte® Buffer B (included in the Beadlyte® Cell Signaling buffer kit, Upstate Biotechnology, Lake Placid, N.Y.) containing an EDTA-free protease inhibitor cocktail tablet (Roche Applied Science, Indianapolis, Ind.) for 15 minutes. The cell extracts were centrifuged at 12,000×g for 15 minutes at room temperature and the supernatants were stored at −80° C. until they were analyzed by Western blot analysis. The total protein concentrations of the cell extracts were determined using a Micro BCA protein assay kit (Pierce, Rockford, Ill.).
In another series of experiments, the Beadlyte® Cell Signaling Assay was used. This assay is a fluorescent bead-based sandwich immunoassay. Each sample (10 μg/25 μL) was pipetted into a well of a 96-well plate and incubated with 25 μL of diluted 5× beads coupled to phospho-JNK, phospho-ERK, phospho-p38 or total JNK, or total ERK, or total p38 specific capture antibodies overnight. […]
The beads were washed and mixed with biotinylated specific reporter antibodies for phospho-MAPK or total-MAPK, followed by streptavidin-phycoerythrin. The amount of total or phospho-MAPK was then quantified by the Luminex 100™ system (Luminex, Austin, Tex.). Fifty events per bead were read, and the data output obtained from the Bio-Plex Manager software were exported to Microsoft Excel® for further analysis. […]

ERK MAP Kinase = test: Beadlyte Cell Signaling Assay, phospho:total ERK MAP kinase; format: cell-based, human; details: 2 mM, Beadlyte method, FIG. 5
Protocol: as §1, §2
In another series of experiments, the Beadlyte® Cell Signaling Assay was used. This assay is a fluorescent bead-based sandwich immunoassay. […]

[1] = Component compatibility with stabilized chlorine dioxide preservative; format: physicochemical
Protocol: A composition including betaine and stabilized chlorine dioxide, as a preservative, was tested for component compatibility. […] Thus, betaine is not useful with certain preservatives, such as stabilized chlorine dioxide. However, betaine may advantageously be employed as a compatible solute in ophthalmic compositions which use other preservative systems, or which are free of preservatives, for example, in single or unit-dose applications.

[2] = tested on: phosphorylated c-jun N-terminal kinases (p-JNK1 and p-JNK2); test: Western blot of phosphorylated JNK1 and JNK2 in primary corneal epithelial cultures under hyperosmolar stress; format: cell-based, human; details: 2 mM

Row | Structure (SMILES) | Osmoprotective benefit on TEER relative to hypertonic control, in words (corneal epithelial cells) | Amount of phospho-total JNK relative to the hypertonic control (JNK) | Amount of ERK (phospho:total) relative to the hypertonic control (ERK MAP Kinase) | Compatibility with stabilized chlorine dioxide (Purite) preservative in a composition [1] | Compatibility with stabilized chlorine dioxide (Purite) preservative in a composition ([1]; listed as betaine) | Concentration dependent effect on % TEER relative to the isotonic control (corneal epithelial cells) | Levels of p-JNK1 and p-JNK2 (Western blot) in 300 mOsmols/kg cultures ([2]; 300 mOsmols/kg EBSS media) | JNK activation (levels of p-JNK1 and p-JNK2, Western blot intensity) compared to 400 mOsmols/kg media alone ([2]; pre-added 60 minutes, 1 hour in 400 mOsmols/kg media)
1 | OC[C@@H](O)[C@H](O)[C@@H](O)CO [Xylitol] | good results | reduced | reduced |  |  |  |  | 
2 | C[N+](C)(C)CC(=O)O [Betaine, trimethyl glycine] |  |  |  | incompatible | not fully compatible |  |  | 
3 | OC[C@@H](O)[C@@H](O)CO [Erythritol] | best results among the polyols tested | reduced | reduced |  |  | dose-related response |  | 
4 | C[N+](C)(C)C[C@H](O)CC(=O)[O-] [Carnitine, L-carnitine inner salt] | produced the most benefit | reduced |  |  |  | dose-related response | less robust effect | definite decrease
5 | O[C@H]1[C@H](O)[C@@H](O)[C@H](O)[C@@H](O)[C@H]1O [Myo-Inositol] | good results |  |  |  |  |  |  | 
